Laboratory results taken from patent publication US20110282028A1, “METHOD FOR IDENTIFYING INHIBITORS OF LIPOTEICHOIC ACID SYNTHASE” (UNIVERSITY OF NEWCASTLE UPON TYNE, priority 2008, published 2011).

Tests used:
Type in all cases: cell-based, B. subtilis
[1] = test system: ltaS mutant (strain 4286); test: Sensitivity to cations, dilutions spotted on NA plates, ltaS mutant; conditions: 37° C.
Experimental: (§1) FIG. 3—Effect of metal ion concentration of viability of wild-type and ltaS mutants: A. Growth of wild-type (168) and ltaS mutant (strain 4286) at 37° C. in on NA plates without additives (left), containing 0.5 mM Mg^2+ (middle) or with addition of 0.05 mM Mn^2+ (right). B. Growth of ltaS mutant (strain 4283, left) and wild-type (strain 168, right) on minimal medium plates containing 10, 100 and 500 μM Mg^2+ as indicated.
(§2) Liquid cultures of B. subtilis strains were grown in Difco Antibiotic Medium 3 (PAB), CH medium (Nicholson & Setlow, 1990), or S-medium (Karamata & Gross, 1970) at 37° C. Nutrient agar (Oxoid) plates were used for growth on solid medium, Modified Salts Medium plates with defined Mg^2+ concentrations were prepared as described previously (Carballido-López et al., 2006). The given concentration of Mg^2+ was achieved by addition of MgSO4 to the medium. DNA manipulations and B. subtilis strains were transformed according to the method of Anagnostopoulos and Spizizen (1961) as modified by Jenkinson (1983). Selection for B. subtilis transformants was carried out on nutrient agar (Oxoid), supplemented with antibiotics, as required, with: kanamycin ([…]) chloramphenicol ([…]), erythromycin ([…] ml^−1), lincomycin ([…] ml^−1) and/or spectinomycin ([…]). […]

wild-type (168) = test: Sensitivity to cations, dilutions spotted on NA plates, wild-type; conditions: 0.05 mM MnSO4 added to nutrient agar (NA), 37° C.
Experimental: as §1, §2

ltaS mutant [2] = test: Zone of inhibition on solid medium, ltaS mutant compared with wild-type; conditions: data not shown
From the text: (§3) In the process of constructing the deletion strain, we noticed that the ltaS mutant was also hyper-sensitive to various antibiotics and lysozyme. […] In other experiments on solid medium the zone of inhibition of all antibiotics tested (kanamycin, ampicillin, vancomycin, penicillin, spectinomycin, erythromycin, lincomycin, carbenicillin) was wider for the ltaS mutant than for the wild-type (not shown). […] The general increase in sensitivity of the mutant to antibiotics and lysozyme is consistent with the notion that LTA also provides a protective layer that restricts the access of many bioactive agents to sensitive sites in the cell envelope.

ltaS mutant [3] = test: Susceptibility of ltaS mutant to lysozyme; conditions: data not shown
From the text: as §3

Compound	zone of inhibition for the ltaS mutant versus the wild-type (ltaS mutant [2])	also measured
O=S(=O)([O-])[O-].[Mg+2] [Mg^2+, MgSO4]		growth of the ltaS mutant ([1]; 0.5 mM Mg^2+ added to nutrient agar (NA)): no effect
O=S(=O)([O-])[O-].[Mn+2] [MnSO4]		growth of the wild-type (wild-type (168)): unaffected; growth of the ltaS mutant ([1]; 0.05 mM MnSO4 added to nutrient agar (NA)): abolished growth
CC1(C)S[C@@H]2[C@H](NC(=O)[C@H](N)c3ccccc3)C(=O)N2[C@H]1C(=O)O [ampicillin]	wider	
CC1(C)S[C@@H]2[C@H](NC(=O)C(C(=O)O)c3ccccc3)C(=O)N2[C@H]1C(=O)O (some centres unmarked) [carbenicillin]	wider	
CC[C@H]1OC(=O)[C@H](C)[C@@H](O[C@H]2C[C@@](C)(OC)[C@@H](O)[C@H](C)O2)[C@H](C)[C@@H](O[C@@H]2O[C@H](C)C[C@H](N(C)C)[C@H]2O)[C@](C)(O)C[C@@H](C)C(=O)[C@H](C)[C@@H](O)[C@]1(C)O [erythromycin]	wider	
CCC[C@@H]1C[C@@H](C(=O)N[C@@H]([C@H]2O[C@H](SC)[C@H](O)[C@@H](O)[C@H]2O)[C@@H](C)O)N(C)C1 [lincomycin]	wider	
CN[C@@H]1[C@H](O)[C@H](NC)[C@H]2O[C@@]3(O)C(=O)C[C@@H](C)O[C@H]3O[C@@H]2[C@H]1O [spectinomycin]	wider	
CN[C@H](CC(C)C)C(=O)N[C@H]1C(=O)N[C@@H](CC(N)=O)C(=O)N[C@H]2C(=O)N[C@H]3C(=O)N[C@H](C(=O)N[C@H](C(=O)O)c4cc(O)cc(O)c4-c4cc3ccc4O)[C@H](O)c3ccc(c(Cl)c3)Oc3cc2cc(c3O[C@@H]2O[C@H](CO)[C@@H](O)[C@H](O)[C@H]2O[C@H]2C[C@](C)(N)[C@H](O)[C@H](C)O2)Oc2ccc(cc2Cl)[C@H]1O [vancomycin]	wider	
lysozyme		susceptibility of the ltaS mutant to lysozyme (ltaS mutant [3]): increased susceptibility
penicillin	wider	
